The values that follow come from the supplement of paper PMC10883282.

In this assay the test system is KHOS-240S. Kind of assay: relative viability vs DMSO control (72 h) (fraction); higher = more viable cells. A digest of the protocol: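 Percent growth from ATPLite readings, averaged over up to triplicate wells, was used as relative viability. Sarcoma cell lines were seeded into 384-well plates for 80–90% confluence, dosed after 24 h, and kept 72 h at 37 °C, 5% CO2. Data were rescaled to a range where 1 is full and 0 is none.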

Structures can show the parent of a compound that is named as a salt. ± gives the standard deviation of the averaged measurements.

Turning to `CC(=O)Nc1cccc(-n2c(=O)n(C3CC3)c(=O)c3c(Nc4ccc(I)cc4F)n(C)c(=O)c(C)c32)c1` [Trametinib], the relative viability is, setting by setting: (0.00017 µM) 1.07 ± 0.038; (0.00051 µM) 1.07 ± 0.014; (0.00152 µM) 1.04 ± 0.027; (0.00457 µM) 1.02 ± 0.057; (0.01372 µM) 0.876 ± 0.04; (0.04115 µM) 0.764 ± 0.029. The relative viability is, setting by setting: (0.1235 µM) 0.719 ± 0.028; (0.3704 µM) 0.717 ± 0.05; (1.111 µM) 0.731 ± 0.023; (3.333 µM) 0.666 ± 0.01; (10 µM) 0.641 ± 0.017.

Take `C=CC(=O)N1CCC[C@@H](n2nc(-c3ccc(Oc4ccccc4)cc3)c3c(N)ncnc32)C1` [Ibrutinib]: the relative viability runs as follows: (0.00017 µM) 1.03 ± 0.038; (0.00051 µM) 1.08 ± 0.064; (0.00152 µM) 1.09 ± 0.078; (0.00457 µM) 1.09 ± 0.079; (0.01372 µM) 1.05 ± 0.054; (0.04115 µM) 1.08 ± 0.053. The relative viability is, setting by setting: (0.1235 µM) 1.05 ± 0.1; (0.3704 µM) 1.05 ± 0.081; (1.111 µM) 0.979 ± 0.045; (3.333 µM) 0.884 ± 0.035; (10 µM) 0.587 ± 0.015.

For the compound `COc1cc2/c(=N/c3ccc(Br)cc3F)nc[nH]c2cc1OCC1CCN(C)CC1` [Vandetanib], the relative viability by setting is: (0.00017 µM) 1.03 ± 0.078; (0.00051 µM) 1.03 ± 0.048; (0.00152 µM) 1.02 ± 0.042; (0.00457 µM) 1.05 ± 0.048; (0.01372 µM) 1.05 ± 0.06; (0.04115 µM) 1.05 ± 0.045. Besides, the relative viability stood at 0.99 ± 0.022 (0.1235 µM); 1.01 ± 0.026 (0.3704 µM); 0.908 ± 0.014 (1.111 µM); 0.4145 ± 0.0025 (3.333 µM); 0.0298 ± 0.0027 (10 µM).

For `C[C@@H]1COCCN1c1cc(-c2ccnn2C)c2ccnc(-c3ccn[nH]3)c2n1`, the relative viability by setting is: (0.00017 µM) 1.04 ± 0.014; (0.00051 µM) 1.06 ± 0.013; (0.00152 µM) 1.07 ± 0.042; (0.00457 µM) 1.04 ± 0.011; (0.01372 µM) 1.01 ± 0.036; (0.04115 µM) 0.783 ± 0.028. Moreover, the relative viability is, setting by setting: (0.1235 µM) 0.366 ± 0.051; (0.3704 µM) 0.194 ± 0.026; (1.111 µM) 0.161 ± 0.0077; (3.333 µM) 0.129 ± 0.0056; (10 µM) 0.119 ± 0.0037.

`COc1cccc2c1C(=O)c1c(O)c3c(c(O)c1C2=O)C[C@@](O)(C(=O)CO)C[C@@H]3O[C@H]1C[C@H](N)[C@H](O)[C@H](C)O1` [Doxorubicin Hydrochloride] came in with a relative viability (0.00017 µM) of 1.08 ± 0.041; a relative viability (0.00051 µM) of 1.05 ± 0.033; a relative viability (0.00152 µM) of 1.05 ± 0.026; a relative viability (0.00457 µM) of 1.07 ± 0.039; a relative viability (0.01372 µM) of 0.996 ± 0.042; a relative viability (0.04115 µM) of 0.654 ± 0.045. The relative viability reads like this: (0.1235 µM) 0.459 ± 0.011; (0.3704 µM) 0.241 ± 0.018; (1.111 µM) 0.109 ± 0.0065; (3.333 µM) 0.124 ± 0.021; (10 µM) 0.106 ± 0.0059.

As to `O=C(Nc1cnn2ccc(N3CCC[C@@H]3c3cc(F)ccc3F)nc12)N1CC[C@H](O)C1` [Larotrectinib], the relative viability is, setting by setting: (0.00017 µM) 1.1 ± 0.045; (0.00051 µM) 1.07 ± 0.064; (0.00152 µM) 1.1 ± 0.091; (0.00457 µM) 1.07 ± 0.093; (0.01372 µM) 1.05 ± 0.066; (0.04115 µM) 1.05 ± 0.02. Besides, the relative viability by setting is: (0.1235 µM) 1.09 ± 0.066; (0.3704 µM) 1.09 ± 0.068; (1.111 µM) 1.06 ± 0.06; (3.333 µM) 1.07 ± 0.079; (10 µM) 1.05 ± 0.082.

In turn, `Cc1cc(C)c(/C=C2\C(=O)Nc3ccccc32)[nH]1` [Semaxanib] returned a relative viability (0.00017 µM) of 1.01 ± 0.02; a relative viability (0.00051 µM) of 1.01 ± 0.032; a relative viability (0.00152 µM) of 1.01 ± 0.025; a relative viability (0.00457 µM) of 1.02 ± 0.034; a relative viability (0.01372 µM) of 0.99 ± 0.01; a relative viability (0.04115 µM) of 0.966 ± 0.013. In addition, the relative viability is 0.951 ± 0.022 (0.1235 µM); 0.959 ± 0.024 (0.3704 µM); 0.844 ± 0.025 (1.111 µM); 0.812 ± 0.023 (3.333 µM); 0.803 ± 0.024 (10 µM).

For the compound `CC1(C)CNc2cc(NC(=O)c3cccnc3NCc3ccncc3)ccc21` [Motesanib], the relative viability was 0.972 ± 0.026 (0.00017 µM); 0.982 ± 0.027 (0.00051 µM); 0.973 ± 0.03 (0.00152 µM); 0.992 ± 0.025 (0.00457 µM); 0.983 ± 0.018 (0.01372 µM); 0.96 ± 0.023 (0.04115 µM). The relative viability by setting is: (0.1235 µM) 0.97 ± 0.013; (0.3704 µM) 0.931 ± 0.042; (1.111 µM) 0.922 ± 0.075; (3.333 µM) 0.874 ± 0.066; (10 µM) 0.803 ± 0.03.

In the case of `Cc1nc(-c2cn3c(n2)-c2ccc(-c4cnn(C(C)(C)C(N)=O)c4)cc2OCC3)n(C(C)C)n1` [Taselisib], the relative viability was determined as 1.03 ± 0.013 (0.00017 µM); 1.03 ± 0.024 (0.00051 µM); 1.01 ± 0.031 (0.00152 µM); 1.02 ± 0.049 (0.00457 µM); 0.952 ± 0.029 (0.01372 µM); 0.911 ± 0.012 (0.04115 µM). Besides, the relative viability (0.1235 µM) was 0.856 ± 0.018; the relative viability (0.3704 µM) was found to be 0.793 ± 0.041; the relative viability (1.111 µM) was 0.725 ± 0.037; the relative viability (3.333 µM) turned out to be 0.684 ± 0.049; the relative viability (10 µM) stood at 0.566 ± 0.017.

In the case of `CC(C)NC(=O)C1CCC(n2c(NC(=O)c3ccc(F)cc3)nc3ccc(CN4CCC(C(C)(C)O)CC4)cc32)CC1` (stereo not drawn) [Belizatinib], the relative viability is, setting by setting: (0.00017 µM) 1.07 ± 0.02; (0.00051 µM) 1.06 ± 0.012; (0.00152 µM) 1.07 ± 0.043; (0.00457 µM) 1.08 ± 0.013; (0.01372 µM) 1.08 ± 0.041; (0.04115 µM) 1.06 ± 0.033. Further, the relative viability is, setting by setting: (0.1235 µM) 1.06 ± 0.034; (0.3704 µM) 0.923 ± 0.02; (1.111 µM) 0.713 ± 0.038; (3.333 µM) 0.399 ± 0.0041; (10 µM) 0.189 ± 0.0089.

As for `C=CC(=O)Nc1cccc(Oc2nc(Nc3ccc(N4CCN(C)CC4)cc3)nc3ccsc23)c1` [Olmutinib], the relative viability reads like this: (0.00017 µM) 1.01 ± 0.015; (0.00051 µM) 1.03 ± 0.014; (0.00152 µM) 1.04 ± 0.018; (0.00457 µM) 1.02 ± 0.025; (0.01372 µM) 1.01 ± 0.024; (0.04115 µM) 1.04 ± 0.011. Moreover, the relative viability was 1.03 ± 0.032 (0.1235 µM); 0.997 ± 0.04 (0.3704 µM); 0.998 ± 0.035 (1.111 µM); 0.865 ± 0.036 (3.333 µM); 0.39 ± 0.017 (10 µM).

Turning to `CNC(=O)c1cc(Oc2ccc(NC(=O)Nc3ccc(Cl)c(C(F)(F)F)c3)c(F)c2)ccn1` [Regorafenib], the relative viability by setting is: (0.00017 µM) 1.05 ± 0.055; (0.00051 µM) 1.09 ± 0.052; (0.00152 µM) 1.07 ± 0.051; (0.00457 µM) 1.07 ± 0.053; (0.01372 µM) 1.1 ± 0.059; (0.04115 µM) 1.1 ± 0.049. Further, the relative viability by setting is: (0.1235 µM) 1.09 ± 0.04; (0.3704 µM) 1.04 ± 0.014; (1.111 µM) 0.96 ± 0.09; (3.333 µM) 0.812 ± 0.045; (10 µM) 0.5087 ± 0.00089.

Take `COc1cc2c(cc1O)CCN[C@]21CS[C@@H]2c3c(OC(C)=O)c(C)c4c(c3[C@H](COC1=O)N1[C@@H]2[C@H]2c3c(cc(C)c(OC)c3O)C[C@@H]([C@@H]1O)N2C)OCO4` [Trabectedin]: the relative viability stood at 1.07 ± 0.015 (2 pM); 1.082 ± 0.0023 (5 pM); 1.07 ± 0.042 (15 pM); 0.946 ± 0.034 (50 pM); 0.482 ± 0.054 (0.00014 µM); 0.00547 ± 0.0011 (0.00041 µM). Also, the relative viability stood at 0.0576 ± 0.0015 (0.0012 µM); 0.0794 ± 0.014 (0.0037 µM); 0.0885 ± 0.032 (0.011 µM); 1.08 ± 0.022 (200 fM); 1.08 ± 0.022 (600 fM).
